How the values were obtained:
Cannabinoid receptor 1 = Cannabinoid receptor 1 (Homo sapiens, UniProt P21554); type: cell membranes, Chem-1, Membrane; conditions: chem-1; note: in other assays of this panel Not Active means under 50% inhibition at 10 µM
Endothelin-1 receptor = target: T1, Endothelin-1 receptor (Homo sapiens, UniProt P25101); type: cell membranes, Membrane; conditions: cho-k1; note: in other assays of this panel Not Active means under 50% inhibition at 10 µM
T1 sequence (P25101 whole entry): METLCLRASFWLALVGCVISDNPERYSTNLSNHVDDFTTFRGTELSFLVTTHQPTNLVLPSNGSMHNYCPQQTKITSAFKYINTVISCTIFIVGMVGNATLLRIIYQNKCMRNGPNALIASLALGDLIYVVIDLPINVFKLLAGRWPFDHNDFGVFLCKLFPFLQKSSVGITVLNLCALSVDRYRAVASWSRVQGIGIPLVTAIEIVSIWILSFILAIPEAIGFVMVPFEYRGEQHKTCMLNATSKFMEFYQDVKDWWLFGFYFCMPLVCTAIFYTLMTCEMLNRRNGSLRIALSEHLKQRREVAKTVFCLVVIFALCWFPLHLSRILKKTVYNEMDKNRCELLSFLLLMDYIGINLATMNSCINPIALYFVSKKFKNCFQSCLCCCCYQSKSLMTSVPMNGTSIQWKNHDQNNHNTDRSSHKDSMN

[1] = DRUGMATRIX: GABAA, Chloride Channel, TBOB radioligand binding (ligand: [3H] TBOB); type: cell membranes, Rattus norvegicus, Wistar, Cerebral cortex, Membrane; conditions: Not Active = under 50% inhibition at 10 µM
Mu-type opioid receptor = Mu-type opioid receptor (Homo sapiens, UniProt P35372); assay: DRUGMATRIX: Opiate mu (OP3, MOP) radioligand binding (ligand: [3H] Diprenorphine); type: cell membranes, CHO-K1, Membrane; conditions: cho-k1; Not Active = under 50% inhibition at 10 µM
[2] = target: T2, 5-hydroxytryptamine receptor 1A (Rattus norvegicus, UniProt P19327); type: cell membranes, CHO-K1, Membrane; note: in other assays of this panel Not Active means under 50% inhibition at 10 µM
T2 sequence (P19327 whole entry): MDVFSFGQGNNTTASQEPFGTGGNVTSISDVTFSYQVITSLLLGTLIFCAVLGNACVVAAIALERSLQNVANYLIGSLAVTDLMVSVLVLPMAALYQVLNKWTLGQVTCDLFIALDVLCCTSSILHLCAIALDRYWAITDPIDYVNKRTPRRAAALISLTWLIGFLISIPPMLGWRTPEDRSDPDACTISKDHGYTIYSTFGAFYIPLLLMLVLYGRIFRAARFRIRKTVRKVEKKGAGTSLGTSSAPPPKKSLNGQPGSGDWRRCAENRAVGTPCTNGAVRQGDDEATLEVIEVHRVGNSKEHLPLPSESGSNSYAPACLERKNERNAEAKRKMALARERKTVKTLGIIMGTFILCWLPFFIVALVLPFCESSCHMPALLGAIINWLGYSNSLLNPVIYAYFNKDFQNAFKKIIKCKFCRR

Cytochrome P450 2C19 = Cytochrome P450 2C19 (Homo sapiens, UniProt P33261); conditions: bti-tn-5b1-4; note: in other assays of this panel Not Active means under 50% inhibition at 10 µM
Estrogen receptor beta = Estrogen receptor beta (Homo sapiens, UniProt Q92731); conditions: sf9; note: in other assays of this panel Not Active means under 50% inhibition at 10 µM
Estrogen receptor beta, sequence (Q92731 whole entry): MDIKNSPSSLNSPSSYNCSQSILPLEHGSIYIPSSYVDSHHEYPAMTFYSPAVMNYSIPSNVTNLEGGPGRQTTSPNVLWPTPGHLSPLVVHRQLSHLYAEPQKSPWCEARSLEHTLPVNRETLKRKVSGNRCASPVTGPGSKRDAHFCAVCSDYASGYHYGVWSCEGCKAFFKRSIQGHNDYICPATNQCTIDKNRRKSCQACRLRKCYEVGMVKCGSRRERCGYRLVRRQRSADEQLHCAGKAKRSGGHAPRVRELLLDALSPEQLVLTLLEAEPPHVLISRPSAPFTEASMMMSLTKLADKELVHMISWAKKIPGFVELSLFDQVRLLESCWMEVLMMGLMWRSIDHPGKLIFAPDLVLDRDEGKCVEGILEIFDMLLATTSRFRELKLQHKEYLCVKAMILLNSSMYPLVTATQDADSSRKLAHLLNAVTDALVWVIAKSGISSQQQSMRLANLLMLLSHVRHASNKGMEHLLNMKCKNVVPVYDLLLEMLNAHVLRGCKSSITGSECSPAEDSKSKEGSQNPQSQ

Cytochrome P450 2C19, sequence (P33261 whole entry): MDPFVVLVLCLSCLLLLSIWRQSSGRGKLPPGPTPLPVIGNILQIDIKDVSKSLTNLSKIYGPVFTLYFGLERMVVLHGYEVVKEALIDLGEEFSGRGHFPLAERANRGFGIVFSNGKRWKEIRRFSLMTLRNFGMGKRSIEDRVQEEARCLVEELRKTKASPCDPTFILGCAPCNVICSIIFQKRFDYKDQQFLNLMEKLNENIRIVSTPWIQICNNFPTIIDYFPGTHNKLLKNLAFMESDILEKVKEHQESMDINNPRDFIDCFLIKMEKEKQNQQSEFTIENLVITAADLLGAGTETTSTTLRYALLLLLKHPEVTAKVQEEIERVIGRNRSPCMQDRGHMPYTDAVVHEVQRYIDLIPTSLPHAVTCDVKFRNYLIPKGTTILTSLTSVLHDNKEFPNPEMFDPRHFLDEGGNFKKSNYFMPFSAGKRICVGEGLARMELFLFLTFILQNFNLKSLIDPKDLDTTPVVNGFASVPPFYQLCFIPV
Mu-type opioid receptor, sequence (P35372 whole entry): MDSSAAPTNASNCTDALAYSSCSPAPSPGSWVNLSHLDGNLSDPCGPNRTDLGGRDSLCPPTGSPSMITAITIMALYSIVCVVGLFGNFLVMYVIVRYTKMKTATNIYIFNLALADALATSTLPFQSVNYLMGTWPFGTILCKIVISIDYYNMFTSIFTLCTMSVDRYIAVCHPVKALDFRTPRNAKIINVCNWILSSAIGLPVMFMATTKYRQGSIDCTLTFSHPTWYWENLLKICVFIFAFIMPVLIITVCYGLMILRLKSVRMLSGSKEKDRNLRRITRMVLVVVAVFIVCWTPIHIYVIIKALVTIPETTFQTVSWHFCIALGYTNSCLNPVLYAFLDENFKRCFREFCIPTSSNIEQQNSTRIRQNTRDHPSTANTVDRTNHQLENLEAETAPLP
Cannabinoid receptor 1, sequence (P21554 whole entry): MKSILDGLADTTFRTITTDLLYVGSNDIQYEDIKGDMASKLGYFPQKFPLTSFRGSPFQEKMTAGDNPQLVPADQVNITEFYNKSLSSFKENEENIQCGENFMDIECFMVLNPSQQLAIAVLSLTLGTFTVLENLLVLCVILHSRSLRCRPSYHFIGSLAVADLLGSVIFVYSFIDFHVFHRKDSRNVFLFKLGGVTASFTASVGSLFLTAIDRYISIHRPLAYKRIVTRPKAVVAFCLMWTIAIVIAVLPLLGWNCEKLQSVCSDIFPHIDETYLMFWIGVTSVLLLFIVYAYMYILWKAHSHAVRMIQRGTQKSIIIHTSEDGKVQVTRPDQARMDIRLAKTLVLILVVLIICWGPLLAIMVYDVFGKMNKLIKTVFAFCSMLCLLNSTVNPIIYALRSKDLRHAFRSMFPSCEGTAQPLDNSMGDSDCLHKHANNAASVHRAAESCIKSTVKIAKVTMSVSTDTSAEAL

With `CC(C)NCC(O)c1ccc(O)c(O)c1` (centres undefined) [ISOPROTERENOL] the IC50 (Cannabinoid receptor 1) was “Not Active”, the IC50 (Endothelin-1 receptor) was “Not Active” and the IC50 [1] was “Not Active”. For the same compound, the Ki [1] was “Not Active”, the IC50 (Mu-type opioid receptor) was “Not Active” and the IC50 ([2]; cho-k1) was “Not Active”. For the same compound, the IC50 (Cytochrome P450 2C19) was “Not Active”, the Ki (Cytochrome P450 2C19) was “Not Active” and the IC50 (Estrogen receptor beta) was “Not Active”.
In the case of `CCN(CC)CCNC(=O)c1cc(S(C)(=O)=O)ccc1OC` [TIAPRIDE], the IC50 (Cannabinoid receptor 1) is reported as “Not Active”, the IC50 (Endothelin-1 receptor) is reported as “Not Active” and the IC50 [1] is reported as “Not Active”. The Ki [1] was “Not Active”, the IC50 (Mu-type opioid receptor) was “Not Active” and the IC50 ([2]; cho-k1) was “Not Active”. For the same compound, the IC50 (Cytochrome P450 2C19) was “Not Active”, the Ki (Cytochrome P450 2C19) was “Not Active” and the IC50 (Estrogen receptor beta) was “Not Active”.
In the case of `COc1c2occc2cc2ccc(=O)oc12` [METHOXSALEN], the IC50 (Cannabinoid receptor 1) is reported as “Not Active”, the IC50 (Endothelin-1 receptor) is reported as “Not Active” and the IC50 [1] is reported as “Not Active”. The Ki [1] was “Not Active”, the IC50 (Mu-type opioid receptor) was “Not Active” and the IC50 ([2]; cho-k1) was “Not Active”. The IC50 (Cytochrome P450 2C19) was “Not Active”, the Ki (Cytochrome P450 2C19) was “Not Active” and the IC50 (Estrogen receptor beta) was “Not Active”.
For `COc1ccc(CCN(C)CCCC(C#N)(c2ccc(OC)c(OC)c2)C(C)C)cc1OC` (centres undefined), the IC50 (Cannabinoid receptor 1) was “Not Active”, the IC50 (Endothelin-1 receptor) was “Not Active” and the IC50 [1] was “Not Active”. For the same compound, the Ki [1] was “Not Active”, the IC50 (Mu-type opioid receptor) was “Not Active” and the IC50 [2] was 3020 nM. The Ki ([2]; read-out: Ki) was 1730 nM, the IC50 (Cytochrome P450 2C19) was “Not Active” and the Ki (Cytochrome P450 2C19) was “Not Active”. For the same compound, the IC50 (Estrogen receptor beta) was “Not Active”.
With `COc1cc2nc(N3CCN(C(=O)C4CCCO4)CC3)nc(N)c2cc1OC` (centres undefined) [TERAZOSIN] the IC50 (Cannabinoid receptor 1) was “Not Active”, the IC50 (Endothelin-1 receptor) was “Not Active” and the IC50 [1] was “Not Active”. For the same compound, the Ki [1] was “Not Active”, the IC50 (Mu-type opioid receptor) was “Not Active” and the IC50 ([2]; cho-k1) was “Not Active”. For the same compound, the IC50 (Cytochrome P450 2C19) was “Not Active”, the Ki (Cytochrome P450 2C19) was “Not Active” and the IC50 (Estrogen receptor beta) was “Not Active”.
For `NC1CCN(c2nc3c(cc2F)c(=O)c(C(=O)O)cn3-c2ccc(F)cc2F)C1` (centres undefined) [TOSUFLOXACIN], the IC50 (Cannabinoid receptor 1) was “Not Active”, the IC50 (Endothelin-1 receptor) was “Not Active” and the IC50 [1] was “Not Active”. The Ki [1] was “Not Active”, the IC50 (Mu-type opioid receptor) was “Not Active” and the IC50 ([2]; cho-k1) was “Not Active”. The IC50 (Cytochrome P450 2C19) was “Not Active”, the Ki (Cytochrome P450 2C19) was “Not Active” and the IC50 (Estrogen receptor beta) was “Not Active”.
With `Nc1cc(N2CCCCC2)nc(N)[n+]1[O-]` [MINOXIDIL] the IC50 (Cannabinoid receptor 1) was “Not Active”, the IC50 (Endothelin-1 receptor) was “Not Active” and the IC50 [1] was “Not Active”. For the same compound, the Ki [1] was “Not Active”, the IC50 (Mu-type opioid receptor) was “Not Active” and the IC50 ([2]; cho-k1) was “Not Active”. For the same compound, the IC50 (Cytochrome P450 2C19) was “Not Active”, the Ki (Cytochrome P450 2C19) was “Not Active” and the IC50 (Estrogen receptor beta) was “Not Active”.
With `CC(C)NCC(O)c1ccc(NS(C)(=O)=O)cc1` (centres undefined) [SOTALOL] the IC50 (Cannabinoid receptor 1) was “Not Active”, the IC50 (Endothelin-1 receptor) was “Not Active” and the IC50 [1] was “Not Active”. The Ki [1] was “Not Active”, the IC50 (Mu-type opioid receptor) was “Not Active” and the IC50 ([2]; cho-k1) was “Not Active”. The IC50 (Cytochrome P450 2C19) was “Not Active”, the Ki (Cytochrome P450 2C19) was “Not Active” and the IC50 (Estrogen receptor beta) was “Not Active”.
With `CCN1CCC[C@H]1CNC(=O)c1cc(S(N)(=O)=O)ccc1OC` [LEVOSULPIRIDE] the IC50 (Cannabinoid receptor 1) was “Not Active”, the IC50 (Endothelin-1 receptor) was “Not Active” and the IC50 [1] was “Not Active”. For the same compound, the Ki [1] was “Not Active”, the IC50 (Mu-type opioid receptor) was “Not Active” and the IC50 ([2]; cho-k1) was “Not Active”. The IC50 (Cytochrome P450 2C19) was “Not Active”, the Ki (Cytochrome P450 2C19) was “Not Active” and the IC50 (Estrogen receptor beta) was “Not Active”.
With `CC(c1cc2ccccc2s1)N(O)C(N)=O` (centres undefined) [ZILEUTON] the IC50 (Cannabinoid receptor 1) was “Not Active”, the IC50 (Endothelin-1 receptor) was “Not Active” and the IC50 [1] was “Not Active”. For the same compound, the Ki [1] was “Not Active”, the IC50 (Mu-type opioid receptor) was “Not Active” and the IC50 ([2]; cho-k1) was “Not Active”. The IC50 (Cytochrome P450 2C19) was “Not Active”, the Ki (Cytochrome P450 2C19) was “Not Active” and the IC50 (Estrogen receptor beta) was “Not Active”.
With `CC(C)Cc1ccc([C@@H](C)C(=O)O)cc1` [(R)-IBUPROPHEN] the IC50 (Cannabinoid receptor 1) was “Not Active”, the IC50 (Endothelin-1 receptor) was “Not Active” and the IC50 [1] was “Not Active”. The Ki [1] was “Not Active”, the IC50 (Mu-type opioid receptor) was “Not Active” and the IC50 ([2]; cho-k1) was “Not Active”. The IC50 (Cytochrome P450 2C19) was “Not Active”, the Ki (Cytochrome P450 2C19) was “Not Active” and the IC50 (Estrogen receptor beta) was “Not Active”.
For `NC(=O)N1C(=O)/C(=C(\O)c2cccs2)c2cc(Cl)ccc21` [TENIDAP], the IC50 (Cannabinoid receptor 1) was “Not Active”, the IC50 (Endothelin-1 receptor) was “Not Active” and the IC50 [1] was “Not Active”. For the same compound, the Ki [1] was “Not Active”, the IC50 (Mu-type opioid receptor) was “Not Active” and the IC50 ([2]; cho-k1) was “Not Active”. The IC50 (Cytochrome P450 2C19) was “Not Active”, the Ki (Cytochrome P450 2C19) was “Not Active” and the IC50 (Estrogen receptor beta) was “Not Active”.
With `CO[C@H]1/C=C/O[C@@]2(C)Oc3c(C)c(O)c4c(O)c(c(/C=N/N5CCN(C6CCCC6)CC5)c(O)c4c3C2=O)NC(=O)/C(C)=C\C=C\[C@H](C)[C@H](O)[C@@H](C)[C@@H](O)[C@@H](C)[C@H](OC(C)=O)[C@@H]1C` [RIFAPENTINE] the IC50 (Cannabinoid receptor 1) was “Not Active”, the IC50 (Endothelin-1 receptor) was “Not Active” and the IC50 [1] was “Not Active”. For the same compound, the Ki [1] was “Not Active”, the IC50 (Mu-type opioid receptor) was “Not Active” and the IC50 ([2]; cho-k1) was “Not Active”. For the same compound, the IC50 (Cytochrome P450 2C19) was “Not Active”, the Ki (Cytochrome P450 2C19) was “Not Active” and the IC50 (Estrogen receptor beta) was “Not Active”.
With `CCCCOc1cc(CC2CNC(=O)N2)ccc1OC` (centres undefined) [RO-201724] the IC50 (Cannabinoid receptor 1) was “Not Active”, the IC50 (Endothelin-1 receptor) was “Not Active” and the IC50 [1] was “Not Active”. The Ki [1] was “Not Active”, the IC50 (Mu-type opioid receptor) was “Not Active” and the IC50 ([2]; cho-k1) was “Not Active”. The IC50 (Cytochrome P450 2C19) was “Not Active”, the Ki (Cytochrome P450 2C19) was “Not Active” and the IC50 (Estrogen receptor beta) was “Not Active”.
In the case of `N#Cc1ccc(C(c2ccc(C#N)cc2)n2cncn2)cc1` [LETROZOLE], the IC50 (Cannabinoid receptor 1) is reported as “Not Active”, the IC50 (Endothelin-1 receptor) is reported as “Not Active” and the IC50 [1] is reported as “Not Active”. For the same compound, the Ki [1] was “Not Active”, the IC50 (Mu-type opioid receptor) was “Not Active” and the IC50 ([2]; cho-k1) was “Not Active”. The IC50 (Cytochrome P450 2C19) was “Not Active”, the Ki (Cytochrome P450 2C19) was “Not Active” and the IC50 (Estrogen receptor beta) was “Not Active”.
In the case of `CN(C/C=C/C#CC(C)(C)C)Cc1cccc2ccccc12` [TERBINAFINE], the IC50 (Cannabinoid receptor 1) is reported as “Not Active”, the IC50 (Endothelin-1 receptor) is reported as “Not Active” and the IC50 [1] is reported as “Not Active”. For the same compound, the Ki [1] was “Not Active”, the IC50 (Mu-type opioid receptor) was “Not Active” and the IC50 ([2]; cho-k1) was “Not Active”. The IC50 (Cytochrome P450 2C19) was “Not Active”, the Ki (Cytochrome P450 2C19) was “Not Active” and the IC50 (Estrogen receptor beta) was “Not Active”.
With `O=C1Nc2ccc(Cl)cc2C(c2ccccc2Cl)=NC1O` (centres undefined) [LORAZEPAM] the IC50 (Cannabinoid receptor 1) was “Not Active”, the IC50 (Endothelin-1 receptor) was “Not Active” and the IC50 [1] was “Not Active”. For the same compound, the Ki [1] was “Not Active”, the IC50 (Mu-type opioid receptor) was “Not Active” and the IC50 ([2]; cho-k1) was “Not Active”. The IC50 (Cytochrome P450 2C19) was “Not Active”, the Ki (Cytochrome P450 2C19) was “Not Active” and the IC50 (Estrogen receptor beta) was “Not Active”.
